ChEMBL document CHEMBL1130742, “Inhibition of thermolysin with nitrone-bearing substrate analogs: a new type of thermolysin inhibitors” (Bioorg Med Chem Lett, 1998)

These compounds were tested against T1, Thermolysin (Bacillus thermoproteolyticus, UniProt P00800) (assay: Inhibitory activity against thermolysin using 2-furylacryloyl-Gly-Leu-NH2 as substrate at pH 7.2).
T1 sequence (P00800 whole entry): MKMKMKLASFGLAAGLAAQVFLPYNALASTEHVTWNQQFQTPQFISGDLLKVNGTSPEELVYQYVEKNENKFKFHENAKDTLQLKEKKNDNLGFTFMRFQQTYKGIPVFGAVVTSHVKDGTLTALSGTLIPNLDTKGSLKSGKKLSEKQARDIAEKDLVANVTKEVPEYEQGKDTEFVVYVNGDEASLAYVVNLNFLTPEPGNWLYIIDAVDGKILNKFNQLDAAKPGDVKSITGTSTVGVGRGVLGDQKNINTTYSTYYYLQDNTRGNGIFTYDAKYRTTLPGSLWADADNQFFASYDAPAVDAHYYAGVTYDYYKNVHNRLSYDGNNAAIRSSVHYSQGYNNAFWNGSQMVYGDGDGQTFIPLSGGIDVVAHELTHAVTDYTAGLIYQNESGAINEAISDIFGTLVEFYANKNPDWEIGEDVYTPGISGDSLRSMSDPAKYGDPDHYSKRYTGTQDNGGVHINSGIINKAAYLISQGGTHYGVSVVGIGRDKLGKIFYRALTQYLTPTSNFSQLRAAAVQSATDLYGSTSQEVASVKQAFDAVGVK

Ki [µM]	SMILES
40	NC(=O)C(/C=[N+](\[O-])Cc1ccccc1)Cc1ccccc1 (stereo not drawn)
244	COC(=O)C(Cc1ccccc1)C/[N+]([O-])=C/c1ccccc1 (stereo not drawn)
54	O=C(O)CNC(=O)C(/C=[N+](\[O-])Cc1ccccc1)Cc1ccccc1 (stereo not drawn)
82	COC(=O)C(/C=[N+](\[O-])Cc1ccccc1)Cc1ccccc1 (stereo not drawn)

Second part, the compound before the results:

SMILES	Ki [µM]
COC(=O)C(Cc1ccccc1)/[N+]([O-])=C/c1ccccc1 (stereo not drawn)	1910
NC(=O)C(Cc1ccccc1)/[N+]([O-])=C/c1ccccc1 (stereo not drawn)	774
O=CN(O)CC(Cc1ccccc1)C(=O)NCC(=O)O (stereo not drawn)	34
O=C(O)CNC(=O)C(CC(=O)O)Cc1ccccc1 (stereo not drawn)	340
